# Data reported in patent US7605265B2, “Heterodimers and methods of using them” (priority 2007, dated 2009).
# Experiments:
# [1] = molecular target: T1, butyrylcholinesterase (BChE) (Rattus norvegicus, UniProt Q9JKC1); experiment: biochemical
# T1 construct: from tissue; host or cells: rat serum
# [2] = tested on: transient focal ischemia; experiment: MCAO (middle carotid artery occlusion model), transient focal ischemia; format: in vivo, mice; conditions: for infarct area (in words): FIG. 5g; for infarct volume (in words): FIG. 5h; for neurological deficits (in words): administration 6 hours after ischemia
# Experimental: The MCAO (middle carotid artery occlusion model) was performed to investigate the protective effects of compounds A, B and C on the brain when the brain was exposed to transient focal ischemia (lack of oxygen), emulating brain conditions during a stroke. […] The ability of the novel compounds to protect against the appearance of these neurological deficits was examined using a four-point scale neurological scoring system (Mann Whitney U test). For each of the following observable signs, the distribution of test subjects was noted (with and without treatment with the invention after ischemia): (0) no observable neurological deficits (normal); (1) failure to extend the left forepaw fully (mild); (2) circling to the contralateral side (moderate); and (3) loss of walking and righting reflex (severe). • (ii) The brains of the test subjects slices were sectioned into five pieces and the infarct area and volume of each slice was measured. The % of infarct area in test subjects treated with the invention after ischemia was compared to that of the control group for each brain slice. • (iii) Hemispheric brain swelling and infarct volume (the area of dead tissue caused by inadequate blood supply) was measured for test subjects treated with the invention after ischemia, and compared to that of the control group.
# The compounds were administered 5 minutes after ischemia, 5 minutes after reperfusion, or 6 hours after ischemia. FIGS. 5a to 5f show results for the heterodimers compound B, C or A respectively, when administered 5 minutes after ischemia or reperfusion. FIGS. 5g and 5h show the results when the novel heterodimers were administered 6 hours after ischemia.
# Compound B was administered at 5 minutes after ischemia. Distribution of neurological scores based on a four-point scale neurological scoring system (Mann Whitney U test): (0) no observable neurological deficits (normal); (1) failure to extend the left forepaw fully (mild); (2) circling to the contralateral side (moderate); and (3) loss of walking and righting reflex (severe).
# The brain was sectioned into five pieces, each 2-mm thick. The infarct area of each posterior surface was analyzed by an image analysis program. The percentage of infarct area and volume were calculated and presented as the percentage of the infarct area of the contralateral hemisphere to eliminate the contribution of edema to the ischemic lesion.
# The infarct area of each posterior surface was analyzed by an image analysis program. Hemispheric brain swelling was calculated as follows (ipsilateral volume−contralateral volume)/contralateral volume×100%.
# [3] = tested on: scopolamine-induced memory impaired rats; experiment: Morris water maze, scopolamine-induced memory impairment; format: in vivo, rat; conditions: for escape latency: scopolamine 0.1 mg/kg i.p., 4 days; for spatial bias: scopolamine 0.1 mg/kg; for spatial bias (% of total distance swum in the training quadrant during spatial probe trial): memory-impaired rats, FIG. 4d-4f
# Experimental: The Morris water maze consists of a water pool with a hidden, submerged escape platform. The rats must learn, over a period of consecutive days, the location of the platform using either contextual or local cues. The time taken to locate the hidden platform (escape latency) is a measure of the animal's cognitive abilities.
# (§1) Scopolamine (0.1 mg/kg) was first i.p. administered to young adult rats to impair their memories. Scopolamine-induced memory impaired rats were then orally administered one of three different doses of compound B (0.025, 0.050, or 0.100 mg/kg) and subjected to the Morris water maze over a period of 4 days. On each day, the time taken for the rats to detect the hidden platform in the water maze was measured, in seconds.
# as §1, with “C (0.1, 0.2,” for “B (0.025, 0.050,”, “0.4” for “0.100”
# as §1, with “A (0.1, 0.2,” for “B (0.025, 0.050,”, “0.4” for “0.100”
# A spatial bias (% of total distance swum in the training quadrant during spatial probe trial) for the region of the apparatus where the platform was positioned during training was also measured for compounds B and C.
# The spatial bias for the region of the testing apparatus where the hidden platform was positioned during training was measured. […] Tacrine (THA) was included for comparison purposes.
# [4] = 0.005 μg/kg, 6 hours after ischemia
# [5] = 0.05 μg/kg, 5 minutes after ischemia
# [6] = 0.05 μg/kg, 6 hours after ischemia
# [7] = 0.5 μg/kg, 5 minutes after ischemia
# [8] = 0.005 μg/kg, 5 minutes after reperfusion
# [9] = 0.05 μg/kg, 5 minutes after reperfusion
# T1 sequence (Q9JKC1 24-597): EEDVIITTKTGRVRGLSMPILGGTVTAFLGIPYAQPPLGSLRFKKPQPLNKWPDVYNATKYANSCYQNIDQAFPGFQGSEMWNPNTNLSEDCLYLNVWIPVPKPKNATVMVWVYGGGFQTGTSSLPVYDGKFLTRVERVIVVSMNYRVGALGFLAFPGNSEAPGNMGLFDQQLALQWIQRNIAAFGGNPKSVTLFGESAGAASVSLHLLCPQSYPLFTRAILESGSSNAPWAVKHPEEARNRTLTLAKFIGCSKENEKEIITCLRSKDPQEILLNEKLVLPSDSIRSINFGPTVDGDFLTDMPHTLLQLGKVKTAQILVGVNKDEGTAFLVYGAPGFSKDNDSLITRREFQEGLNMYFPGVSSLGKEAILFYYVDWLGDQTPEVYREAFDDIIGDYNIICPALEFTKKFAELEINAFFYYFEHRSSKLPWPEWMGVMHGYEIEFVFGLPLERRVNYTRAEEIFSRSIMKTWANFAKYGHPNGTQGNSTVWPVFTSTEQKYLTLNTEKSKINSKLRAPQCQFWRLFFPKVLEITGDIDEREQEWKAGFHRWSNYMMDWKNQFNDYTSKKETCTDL
compound,measurement,setting,value
O=c1ccc2c([nH]1)CCCC2NCCCCCCCNc1c2c(nc3cc(Cl)ccc13)CCCC2 (stereo not shown) [Compound B],IC50,[1],31.1 ± 1.96 nM
same,% Infarct area in brain slice # 1,[2]; [4],11.9 ± 4.3%
same,% Infarct area in brain slice # 2,[2]; [4],43.4 ± 6.5%
same,% Infarct area in brain slice # 3,[2]; [4],40.1 ± 4.7 %
same,% Infarct area in brain slice # 4,[2]; [4],24.3 ± 7.5%
same,% Infarct area in brain slice # 5,[2]; [4],−1.4 ± 1.0%
same,Hemispheric swelling (%),[2]; [4],7.3 ± 1.2%
same,Infarct volume (%),[2]; [4],28.5 ± 3.4%
same,Observed Neurological Deficits Mean ± SEM,[2]; [4],1.2 ± 0.2
same,"Observed Neurological Deficits, score 0 (number of animals)",[2]; [4],0
same,"Observed Neurological Deficits, score 1 (number of animals)",[2]; [4],7
same,"Observed Neurological Deficits, score 2 (number of animals)",[2]; [4],2
same,"Observed Neurological Deficits, score 3 (number of animals)",[2]; [4],0
same,n (dead/total): dead/total,[2]; [4],9 (0/9)
same,% Infarct area in brain slice # 1,[2]; [5],11.5%
same,% Infarct area in brain slice # 2,[2]; [5],42.6 ± 4.8 %
same,% Infarct area in brain slice # 3,[2]; [5],40.0 ± 6.6 %
same,% Infarct area in brain slice # 4,[2]; [5],34.0%
same,% Infarct area in brain slice # 5,[2]; [5],0.1%
same,Hemispheric swelling (%),[2]; [5],6.5 ± 1.5%
same,Infarct volume (%),[2]; [5],31.2 ± 4.6 %
same,Observed Neurological Deficits Mean ± SEM,[2]; [5],1.1 ± 0.1
same,"Observed Neurological Deficits, score 0 (number of animals)",[2]; [5],0
same,"Observed Neurological Deficits, score 1 (number of animals)",[2]; [5],8
same,"Observed Neurological Deficits, score 2 (number of animals)",[2]; [5],1
same,"Observed Neurological Deficits, score 3 (number of animals)",[2]; [5],0
same,n (dead/total): dead/total,[2]; [5],9 (2/11)
same,infarct area in brain slices (in words),"[2]; 0.05 μg/kg, 5 minutes after ischemia, FIG. 5a",reduced the infarct area in brain slices #2 and #3
same,% Infarct area in brain slice # 1,[2]; [6],15.7 ± 2.9%
same,% Infarct area in brain slice # 2,[2]; [6],50.5 ± 7.2%
same,% Infarct area in brain slice # 3,[2]; [6],41.7 ± 6.0%
same,% Infarct area in brain slice # 4,[2]; [6],25.2 ± 8.2%
same,% Infarct area in brain slice # 5,[2]; [6],−1.3 ± 1.7%
same,Hemispheric swelling (%),[2]; [6],7.0 ± 1.5%
same,Infarct volume (%),[2]; [6],31.1 ± 4.8%
same,Observed Neurological Deficits Mean ± SEM,[2]; [6],1.4 ± 0.2
same,"Observed Neurological Deficits, score 0 (number of animals)",[2]; [6],0
same,"Observed Neurological Deficits, score 1 (number of animals)",[2]; [6],5
same,"Observed Neurological Deficits, score 2 (number of animals)",[2]; [6],3
same,"Observed Neurological Deficits, score 3 (number of animals)",[2]; [6],0
same,n (dead/total): dead/total,[2]; [6],8 (3/12)
same,Observed Neurological Deficits Mean ± SEM,[2]; [7],1.5 ± 0.3
same,"Observed Neurological Deficits, score 0 (number of animals)",[2]; [7],0
same,"Observed Neurological Deficits, score 1 (number of animals)",[2]; [7],2
same,"Observed Neurological Deficits, score 2 (number of animals)",[2]; [7],2
same,"Observed Neurological Deficits, score 3 (number of animals)",[2]; [7],0
same,n (dead/total): dead/total,[2]; [7],4 (4/8)
same,infarct volume and hemispheric swelling (in words),"[2]; 5 minutes after ischemia (compound A: 0.05 and 0.1 mg/kg), FIG. 5b, 5f",reduces infarct volume but not hemispheric swelling
same,infarct area (in words),[2]; 6 hours after ischemia,improvement in the infarct area
same,infarct volume (in words),[2]; 6 hours after ischemia,decreases infarct volume
same,neurological deficits induced by ischemia (in words),[2]; administered 5 minutes after ischemia,reduced neurological deficits induced by ischemia
same,neurological deficits (in words),[2],reduced neurological deficits
same,escape latency,"[3]; 0.1 mg/kg orally, FIG. 4a",reversed the increased escape latency induced by scopolamine
same,spatial bias,"[3]; 0.05 and 0.1 mg/kg p.o., FIG. 4d",spatial bias close to control levels
same,spatial bias (% of total distance swum in the training quadrant during spatial probe trial),[3],significantly increased spatial bias
O=c1ccc2c([nH]1)CCCC2NCCCCCCCCNc1c2c(nc3cc(Cl)ccc13)CCCC2 (stereo not shown) [Compound C],IC50,[1],638 ± 122 nM
same,% Infarct area in brain slice # 1,[2]; [8],18.8 ± 3.3%
same,% Infarct area in brain slice # 2,[2]; [8],47.8 ± 3.0%
same,% Infarct area in brain slice # 3,[2]; [8],45.4 ± 1.8%
same,% Infarct area in brain slice # 4,[2]; [8],18.5 ± 3.8 %
same,% Infarct area in brain slice # 5,[2]; [8],0.6 ± 0.5%
same,Hemispheric swelling (%),[2]; [8],7.1 ± 1.0 %
same,Infarct volume (%),[2]; [8],30.1 ± 1.5 %
same,Observed Neurological Deficits Mean ± SEM,[2]; [8],1.0 ± 0.0
same,"Observed Neurological Deficits, score 0 (number of animals)",[2]; [8],0
same,"Observed Neurological Deficits, score 1 (number of animals)",[2]; [8],9
same,"Observed Neurological Deficits, score 2 (number of animals)",[2]; [8],0
same,"Observed Neurological Deficits, score 3 (number of animals)",[2]; [8],0
same,n (dead/total): dead/total,[2]; [8],9 (1/10)
same,% Infarct area in brain slice # 1,[2]; [4],15.9 ± 4.0%
same,% Infarct area in brain slice # 2,[2]; [4],40.2 ± 7.9%
same,% Infarct area in brain slice # 3,[2]; [4],35.5 ± 5.3 %
same,% Infarct area in brain slice # 4,[2]; [4],12.5 ± 4.9 %
same,% Infarct area in brain slice # 5,[2]; [4],−0.8 ± 0.8%
same,Hemispheric swelling (%),[2]; [4],6.2 ± 1.2%
same,Infarct volume (%),[2]; [4],23.9 ± 4.3 %
same,Observed Neurological Deficits Mean ± SEM,[2]; [4],1.3 ± 0.2
same,"Observed Neurological Deficits, score 0 (number of animals)",[2]; [4],0
same,"Observed Neurological Deficits, score 1 (number of animals)",[2]; [4],6
same,"Observed Neurological Deficits, score 2 (number of animals)",[2]; [4],2
same,"Observed Neurological Deficits, score 3 (number of animals)",[2]; [4],0
same,n (dead/total): dead/total,[2]; [4],8 (1/9)
same,% Infarct area in brain slice # 1,[2]; [9],12.8 ± 3.3%
same,% Infarct area in brain slice # 2,[2]; [9],54.0 ± 4.1%
same,% Infarct area in brain slice # 3,[2]; [9],51.4 ± 3.1%
same,% Infarct area in brain slice # 4,[2]; [9],26.2 ± 6.7%
same,% Infarct area in brain slice # 5,[2]; [9],−1.0 ± 0.8%
same,Hemispheric swelling (%),[2]; [9],7.4 ± 1.0 %
same,Infarct volume (%),[2]; [9],34.5 ± 3.7%
same,Observed Neurological Deficits Mean ± SEM,[2]; [9],1.3 ± 0.2
same,"Observed Neurological Deficits, score 0 (number of animals)",[2]; [9],0
same,"Observed Neurological Deficits, score 1 (number of animals)",[2]; [9],4
same,"Observed Neurological Deficits, score 2 (number of animals)",[2]; [9],2
same,"Observed Neurological Deficits, score 3 (number of animals)",[2]; [9],0
same,n (dead/total): dead/total,[2]; [9],6 (1/7)
same,% Infarct area in brain slice # 1,[2]; [6],11.7 ± 3.3%
same,% Infarct area in brain slice # 2,[2]; [6],38.0 ± 6.8 %
same,% Infarct area in brain slice # 3,[2]; [6],32.5 ± 6.6 %
same,% Infarct area in brain slice # 4,[2]; [6],16.8 ± 6.0%
same,% Infarct area in brain slice # 5,[2]; [6],0.5 ± 0.4%
same,Hemispheric swelling (%),[2]; [6],5.0 ± 1.2%
same,Infarct volume (%),[2]; [6],23.5 ± 4.4 %
same,Observed Neurological Deficits Mean ± SEM,[2]; [6],1.3 ± 0.2
same,"Observed Neurological Deficits, score 0 (number of animals)",[2]; [6],0
same,"Observed Neurological Deficits, score 1 (number of animals)",[2]; [6],6
same,"Observed Neurological Deficits, score 2 (number of animals)",[2]; [6],2
same,"Observed Neurological Deficits, score 3 (number of animals)",[2]; [6],0
same,n (dead/total): dead/total,[2]; [6],8 (1/9)
same,infarct area in brain slices (in words),"[2]; 5 minutes after reperfusion, FIG. 5c",reduction in infarct area of brain slices #4
same,infarct size and hemispheric swelling (in words),"[2]; 5 minutes after reperfusion, FIG. 5d",reduced infarct size and hemispheric swelling
same,infarct area (in words),[2]; 6 hours after ischemia,improvement in the infarct area
same,infarct volume (in words),[2]; 6 hours after ischemia,decreases infarct volume
same,neurological deficits induced by ischemia (in words),[2]; administered 5 minutes after reperfusion,reduced neurological deficits induced by ischemia
same,neurological deficits (in words),[2],reduced neurological deficits
same,"escape latency, compared with tacrine",[3]; 0.2 mg/kg and 0.4 mg/kg vs 1.5 mg/kg tacrine (THA),more effective that 1.5 mg/kg tacrine
same,escape latency,"[3]; 0.4 mg/kg orally, FIG. 4b",significantly reversed the increased escape latency induced by scopolamine
same,spatial bias,"[3]; 0.2 and 0.4 mg/kg, FIG. 4e, 4f",spatial bias close to control levels
same,spatial bias (% of total distance swum in the training quadrant during spatial probe trial),[3],significantly increased spatial bias
